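Each compound was tested at five concentrations against cells in 96-well plates for 48 hours. GI50 is the concentration that inhibits growth by half. At the TGI there is no net growth.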
How the values were obtained:
Test in all cases: inhibition of tumour cell growth, NCI panel, 48 h
UACC-257 melanoma = test system: UACC-257 melanoma
OVCAR-4 ovarian = test system: OVCAR-4 ovarian
NCI-H23 lung = test system: NCI-H23 lung
OVCAR-3 ovarian = test system: OVCAR-3 ovarian
786-0 renal = test system: 786-0 renal
BT-549 breast = test system: BT-549 breast
NCI/ADR-RES ovarian = test system: NCI/ADR-RES ovarian
CCRF-CEM leukemia = test system: CCRF-CEM leukemia
UO-31 renal = test system: UO-31 renal
DU-145 prostate = test system: DU-145 prostate
NCI-H460 lung = test system: NCI-H460 lung
HL-60(TB) leukemia = test system: HL-60(TB) leukemia
A549 NSCLC = test system: A549 NSCLC
EKVX NSCLC = test system: EKVX NSCLC
OVCAR-8 ovarian = test system: OVCAR-8 ovarian
CAKI-1 renal = test system: CAKI-1 renal
PC-3 prostate = test system: PC-3 prostate
NCI-H522 lung = test system: NCI-H522 lung
KM12 colon = test system: KM12 colon
RXF 393 renal = test system: RXF 393 renal
MOLT-4 leukemia = test system: MOLT-4 leukemia
HCT-116 colon = test system: HCT-116 colon
ACHN renal = test system: ACHN renal
HT29 colon = test system: HT29 colon
HOP-92 NSCLC = test system: HOP-92 NSCLC
HS 578T breast = test system: HS 578T breast
SR leukemia = test system: SR leukemia
A498 renal = test system: A498 renal
MALME-3M melanoma = test system: MALME-3M melanoma
T-47D breast = test system: T-47D breast
SF-268 CNS = test system: SF-268 CNS
SNB-75 CNS = test system: SNB-75 CNS
MCF7 breast = test system: MCF7 breast
SF-295 CNS = test system: SF-295 CNS
SK-MEL-28 melanoma = test system: SK-MEL-28 melanoma
LOX IMVI melanoma = test system: LOX IMVI melanoma
K-562 leukemia = test system: K-562 leukemia
M14 melanoma = test system: M14 melanoma
UACC-62 melanoma = test system: UACC-62 melanoma
RPMI-8226 leukemia = test system: RPMI-8226 leukemia
U251 CNS = test system: U251 CNS
HCT-15 colon = test system: HCT-15 colon
HOP-62 NSCLC = test system: HOP-62 NSCLC
SW-620 colon = test system: SW-620 colon
SNB-19 CNS = test system: SNB-19 CNS
SK-MEL-2 melanoma = test system: SK-MEL-2 melanoma
SK-MEL-5 melanoma = test system: SK-MEL-5 melanoma
SF-539 CNS = test system: SF-539 CNS
SK-OV-3 ovarian = test system: SK-OV-3 ovarian
OVCAR-5 ovarian = test system: OVCAR-5 ovarian
NCI-H226 lung = test system: NCI-H226 lung
IGROV1 ovarian = test system: IGROV1 ovarian
TK-10 renal = test system: TK-10 renal
SN12C renal = test system: SN12C renal
COLO 205 colon = test system: COLO 205 colon
MDA-MB-231 breast = test system: MDA-MB-231 breast
MDA-MB-435 = test system: MDA-MB-435
HCC-2998 colon = test system: HCC-2998 colon

CNCCN(C)c1ccc(Nc2cc(NC3CC3)n3ncc(C#N)c3n2)cc1NC(C)=O
GI50 (UACC-257 melanoma): 16.3 nM | TGI (UACC-257 melanoma): 10700 nM | GI50 (OVCAR-4 ovarian): < 10 nM | TGI (OVCAR-4 ovarian): > 39200 nM | GI50 (NCI-H23 lung): < 10 nM | TGI (NCI-H23 lung): 237 nM | GI50 (OVCAR-3 ovarian): < 10 nM | TGI (OVCAR-3 ovarian): 869 nM | GI50 (786-0 renal): 43.6 nM | TGI (786-0 renal): 13500 nM | GI50 (BT-549 breast): < 14 nM | TGI (BT-549 breast): 165 nM | GI50 (NCI/ADR-RES ovarian): 3360 nM | TGI (NCI/ADR-RES ovarian): > 100000 nM | GI50 (CCRF-CEM leukemia): < 10 nM | TGI (CCRF-CEM leukemia): 6000 nM | GI50 (UO-31 renal): 143 nM | TGI (UO-31 renal): 3790 nM | GI50 (DU-145 prostate): 45.2 nM | TGI (DU-145 prostate): > 100000 nM | GI50 (NCI-H460 lung): < 10 nM | TGI (NCI-H460 lung): 12400 nM | GI50 (HL-60(TB) leukemia): < 10 nM | TGI (HL-60(TB) leukemia): 498 nM | GI50 (A549 NSCLC): 18.8 nM | TGI (A549 NSCLC): 12500 nM | GI50 (EKVX NSCLC): < 13 nM | TGI (EKVX NSCLC): 4040 nM | GI50 (OVCAR-8 ovarian): 59.2 nM | TGI (OVCAR-8 ovarian): > 100000 nM | GI50 (CAKI-1 renal): 12.3 nM | TGI (CAKI-1 renal): 153 nM | GI50 (PC-3 prostate): < 10 nM | TGI (PC-3 prostate): 13200 nM | GI50 (NCI-H522 lung): < 10 nM | TGI (NCI-H522 lung): 1130 nM | GI50 (KM12 colon): 25.9 nM | TGI (KM12 colon): > 80100 nM | GI50 (RXF 393 renal): 10 nM | TGI (RXF 393 renal): 34.2 nM | GI50 (MOLT-4 leukemia): 18.6 nM | GI50 (HCT-116 colon): < 10 nM | TGI (HCT-116 colon): 195 nM | GI50 (ACHN renal): 73 nM | TGI (ACHN renal): 15400 nM | GI50 (HT29 colon): < 10 nM | TGI (HT29 colon): > 100000 nM | GI50 (HOP-92 NSCLC): < 10 nM | TGI (HOP-92 NSCLC): 46.6 nM | GI50 (HS 578T breast): < 10 nM | TGI (HS 578T breast): 117 nM | GI50 (SR leukemia): < 10 nM | TGI (SR leukemia): 5730 nM | GI50 (A498 renal): < 11.7 nM | TGI (A498 renal): < 26 nM | GI50 (MALME-3M melanoma): 16.6 nM | TGI (MALME-3M melanoma): 3180 nM | GI50 (T-47D breast): < 10 nM | TGI (T-47D breast): 1340 nM | GI50 (SF-268 CNS): 18.2 nM | TGI (SF-268 CNS): 16400 nM | GI50 (SNB-75 CNS): < 10 nM | TGI (SNB-75 CNS): 51.9 nM | GI50 (MCF7 breast): < 10 nM | TGI (MCF7 breast): 1590 nM | GI50 (SF-295 CNS): 27.7 nM | TGI (SF-295 CNS): 12500 nM | GI50 (SK-MEL-28 melanoma): 39.3 nM | TGI (SK-MEL-28 melanoma): 18600 nM | GI50 (LOX IMVI melanoma): 20.4 nM | TGI (LOX IMVI melanoma): 390 nM | GI50 (K-562 leukemia): < 13.8 nM | TGI (K-562 leukemia): > 40100 nM | GI50 (M14 melanoma): < 11.8 nM | TGI (M14 melanoma): 452 nM | GI50 (UACC-62 melanoma): 19.5 nM | TGI (UACC-62 melanoma): 149 nM | GI50 (RPMI-8226 leukemia): < 10 nM | TGI (RPMI-8226 leukemia): 2640 nM | GI50 (U251 CNS): < 10 nM | TGI (U251 CNS): > 100000 nM | GI50 (HCT-15 colon): 290 nM | TGI (HCT-15 colon): > 100000 nM | GI50 (HOP-62 NSCLC): 27.5 nM | TGI (HOP-62 NSCLC): > 54400 nM | GI50 (SW-620 colon): < 10 nM | TGI (SW-620 colon): 209 nM | GI50 (SNB-19 CNS): < 10 nM | TGI (SNB-19 CNS): > 100000 nM | GI50 (SK-MEL-2 melanoma): 20.2 nM | TGI (SK-MEL-2 melanoma): 445 nM | GI50 (SK-MEL-5 melanoma): < 10 nM | TGI (SK-MEL-5 melanoma): 462 nM | GI50 (SF-539 CNS): 14 nM | TGI (SF-539 CNS): 2360 nM | GI50 (SK-OV-3 ovarian): 35.7 nM | TGI (SK-OV-3 ovarian): 668 nM | GI50 (OVCAR-5 ovarian): < 10 nM | TGI (OVCAR-5 ovarian): > 28500 nM | GI50 (NCI-H226 lung): < 10 nM | TGI (NCI-H226 lung): 1230 nM | GI50 (IGROV1 ovarian): < 10.7 nM | TGI (IGROV1 ovarian): 961 nM | GI50 (TK-10 renal): < 10 nM | TGI (TK-10 renal): 45.3 nM | GI50 (SN12C renal): 75.2 nM | TGI (SN12C renal): > 64200 nM | GI50 (COLO 205 colon): < 10 nM | TGI (COLO 205 colon): 2330 nM | GI50 (MDA-MB-231 breast): < 10 nM | TGI (MDA-MB-231 breast): 2170 nM | GI50 (MDA-MB-435): 16.1 nM | TGI (MDA-MB-435): > 41100 nM | GI50 (HCC-2998 colon): 17.5 nM | TGI (HCC-2998 colon): 16400 nM
